ChEMBL document CHEMBL5143619, “Antimicrobial Prenylated Isoflavones from the Leaves of the Amazonian Medicinal Plant Vatairea guianensis Aubl” (J Nat Prod, 2022)
pIC50: −log10 of the molar value.

What was measured:
[1] = Selectivity index, ratio of IC50 for human HaCaT cells to IC50 for antibacterial activity against methicillin-resistant Staphylococcus aureus; type: toxicity; conditions: read-out: Ratio IC50
Staphylococcus aureus = assay: Antibacterial activity against methicillin-resistant Staphylococcus aureus assessed as bacterial growth inhibition incubated for 5 hrs under shaking condition by resazurin dye based assay; type: functional, organism-based
[2] = Selectivity index, ratio of IC50 for human HaCaT cells to IC50 for human MDA-MB-231 cells; type: toxicity; conditions: read-out: Ratio IC50
[3] = Selectivity index, ratio of IC50 for human HaCaT cells to IC50 for human A-375 cells; type: toxicity; conditions: read-out: Ratio IC50
A-375 = assay: Cytotoxicity against human A-375 cells assessed as reduction in cell viability incubated for 24 hrs by CellTiter-Blue cell viability assay; type: functional, cell-based; conditions: A-375, 24 h
HCT-116 = assay: Cytotoxicity against human HCT-116 cells assessed as reduction in cell viability incubated for 24 hrs by CellTiter-Blue cell viability assay; type: functional, cell-based; conditions: HCT-116, 24 h
[4] = Cytotoxicity against human HaCaT cells assessed as reduction in cell viability incubated for 24 hrs by CellTiter-Blue cell viability assay; type: toxicity, cell-based
[5] = Selectivity index, ratio of IC50 for human HaCaT cells to IC50 for human HCT-116 cells; type: toxicity; conditions: read-out: Ratio IC50
MDA-MB-231 = assay: Cytotoxicity against human MDA-MB-231 cells assessed as reduction in cell viability incubated for 24 hrs by CellTiter-Blue cell viability assay; type: functional, cell-based; conditions: MDA-MB-231, 24 h
Cryptococcus neoformans = assay: Antifungal activity against Cryptococcus neoformans assessed as fungal growth inhibition incubated for 5 hrs by microplate reader analysis; type: functional, organism-based
Candida albicans = assay: Antifungal activity against Candida albicans assessed as fungal growth inhibition incubated for 5 hrs under shaking condition by resazurin dye based assay; type: functional, organism-based
Trichophyton rubrum = assay: Antifungal activity against Trichophyton rubrum assessed as fungal growth inhibition incubated for 72 hrs by microplate reader analysis; type: functional, organism-based
[6] = Selectivity index, ratio of IC50 for human HaCaT cells to IC50 for antibacterial activity against Enterococcus faecium; type: toxicity; conditions: read-out: Ratio IC50
[7] = Selectivity index, ratio of IC50 for human HaCaT cells to IC50 for antifungal activity against Cryptococcus neoformans; type: toxicity; conditions: read-out: Ratio IC50
Enterococcus faecium = assay: Antibacterial activity against Enterococcus faecium assessed as bacterial growth inhibition incubated for 5 hrs by bromocresol purple dye based assay; type: functional, organism-based
[8] = Selectivity index, ratio of IC50 for human HaCaT cells to IC50 for antifungal activity against Trichophyton rubrum; type: toxicity; conditions: read-out: Ratio IC50
[9] = Selectivity index, ratio of IC50 for human HaCaT cells to IC50 for antifungal activity against Candida albicans; type: toxicity; conditions: read-out: Ratio IC50

Compound | selectivity ratio [1] | pIC50 (Staphylococcus aureus) | selectivity ratio [3] | pIC50 (A-375) | pIC50 (HCT-116) | IC50 at 24 h [4] [µM] | selectivity ratio [5] | pIC50 (MDA-MB-231) | further results
COc1ccc(-c2coc3c(CCC(C)(C)O)c(O)cc(O)c3c2=O)cc1O | > 5.5 | 4.31 |  |  |  |  |  |  | 
COc1cc(-c2coc3c(CC=C(C)C)c(O)cc(O)c3c2=O)ccc1O |  |  | 1.4 | 4.24 | 3.96 | 80.7 | 1.9 | 4.06 | selectivity ratio [2]: 1.5
C[C@@H]1[C@H](O)[C@@H](C)/C=C/C=C/C=C/C=C/C=C/C=C/C=C/[C@H](O[C@@H]2O[C@H](C)[C@@H](O)[C@H](N)[C@@H]2O)C[C@@H]2O[C@](O)(C[C@@H](O)C[C@@H](O)[C@H](O)CC[C@@H](O)C[C@@H](O)CC(=O)O[C@H]1C)C[C@H](O)[C@H]2C(=O)O [AMPHOTERICIN B] |  |  |  |  |  |  |  |  | pIC50 (Cryptococcus neoformans): 6.70
NYSTATIN |  |  |  |  |  |  |  |  | pIC50 (Candida albicans): 5.89
Clc1ccccc1C(c1ccccc1)(c1ccccc1)n1ccnc1 [CLOTRIMAZOLE] |  |  |  |  |  |  |  |  | pIC50 (Trichophyton rubrum): 6.52
COc1ccc(-c2coc3c(CC=C(C)C)c(O)cc(O)c3c2=O)cc1O | 10.3 | 5.17 | 1.2 | 4.23 | 4.06 | 69.8 | 0.8 | 3.96 | pIC50 (Cryptococcus neoformans): 4.87; selectivity ratio [2]: 0.6; pIC50 (Candida albicans; Candida albicans, 5 h): 4.57; selectivity ratio [6]: 5.5; selectivity ratio [7]: 5.1; pIC50 (Enterococcus faecium): 4.89; selectivity ratio [8]: 5.7; selectivity ratio [9]: 2.6; pIC50 (Trichophyton rubrum): 4.91
O=C(N[C@H](CO)[C@H](O)c1ccc([N+](=O)[O-])cc1)C(Cl)Cl [CHLORAMPHENICOL] |  | 5.51 |  |  |  |  |  |  | 
CC(C)(O)CCc1c(O)cc(O)c2c(=O)c(-c3ccc(O)cc3)coc12 |  |  | 0.8 | 3.80 | 3.65 | 135 | 1.4 | 3.81 | selectivity ratio [2]: 0.9
COc1cc(-c2coc3c(CCC(C)(C)O)c(O)cc(O)c3c2=O)ccc1O | 5.6 | 4.43 | 0.8 | 3.60 | 3.63 | 207 | 0.9 |  | selectivity ratio [6]: 2.6; pIC50 (Enterococcus faecium): 4.09
COc1cccc2c1C(=O)c1c(O)c3c(c(O)c1C2=O)C[C@@](O)(C(=O)CO)C[C@@H]3O[C@H]1C[C@H](N)[C@H](O)[C@H](C)O1 [DOXORUBICIN] |  |  |  | 6.40 | 4.31 | 50 |  | 4.59 | 
CC1(C)S[C@@H]2[C@H](NC(=O)[C@H](N)c3ccccc3)C(=O)N2[C@H]1C(=O)O [AMPICILLIN] |  |  |  |  |  |  |  |  | pIC50 (Enterococcus faecium): 6.22
CC(C)(O)CCc1c(O)cc(O)c2c(=O)c(-c3ccc(O)c(O)c3)coc12 | 2.9 | 4.53 |  |  |  | 85.9 |  |  | 
CC(C)=CCc1c(O)cc(O)c2c(=O)c(-c3ccc(O)cc3)coc12 |  |  | 1.8 | 4.05 | 3.73 | 160 | 0.9 |  | 
